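Interpolation was linear, between the two tested concentrations surrounding the appropriate level; five concentrations were tested over 48 hours in 96-well plates. GI50: concentration for 50% inhibition of growth.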 Calls of active or inactive are those of the source. Rule as the data show it: active = GI50 up to about 1.1 µM and inactive = higher.
Columns and labels:
Experiment in all cases: inhibition of tumour cell growth, NCI panel, 48 h
[1] = system: SF-268
[2] = system: A549
[3] = system: M14
[4] = system: EKVX
[5] = system: HCC 2998
[6] = system: OVCAR-3
[7] = system: CAKI-1
[8] = system: SK-MEL-5
[9] = system: SNB-19
[10] = system: UO-31
[11] = system: MDA-MB-435
[12] = system: HT-29
[13] = system: KM12
[14] = system: NCI-H522
[15] = system: MDA-N
[16] = system: MDA-MB-231
[17] = system: NCI-H23
[18] = system: BT-549
[19] = system: LOX IMVI

Cn1cc2c(=O)n3ncn(-c4ccc(Br)cc4)c3nc2n1
GI50 [1]: > 100 µM (inactive) | GI50 [2]: > 100 µM (inactive) | GI50 [3]: > 100 µM (inactive) | GI50 [4]: > 100 µM (inactive) | GI50 [5]: > 100 µM (inactive) | GI50 [6]: > 100 µM (inactive) | GI50 [7]: > 100 µM (inactive) | GI50 [8]: 87.9 µM (inactive) | GI50 [9]: > 100 µM (inactive) | GI50 [10]: > 100 µM (inactive) | GI50 [11]: > 100 µM (inactive) | GI50 [12]: > 100 µM (inactive) | GI50 [13]: > 100 µM (inactive) | GI50 [14]: > 100 µM (inactive) | GI50 [15]: > 100 µM (inactive) | GI50 [16]: > 100 µM (inactive) | GI50 [17]: > 100 µM (inactive) | GI50 [18]: > 100 µM (inactive)

CN(C)C(=S)SN(C)C(=O)Nc1ccccc1
GI50 [1]: 38.4 µM (inactive) | GI50 [2]: 23.4 µM (inactive) | GI50 [3]: 7.46 µM (inactive) | GI50 [4]: > 86.9 µM (inactive) | GI50 [5]: 17.3 µM (inactive) | GI50 [6]: 0.618 µM (active) | GI50 [7]: 26.1 µM (inactive) | GI50 [19]: 8.26 µM (inactive) | GI50 [8]: 3.28 µM (inactive) | GI50 [9]: 80.2 µM (inactive) | GI50 [10]: 57.7 µM (inactive) | GI50 [11]: 19.7 µM (inactive) | GI50 [12]: 1.69 µM (inactive) | GI50 [13]: 12.1 µM (inactive) | GI50 [14]: 0.128 µM (active) | GI50 [15]: 9.53 µM (inactive) | GI50 [16]: 38.9 µM (inactive) | GI50 [17]: 7.4 µM (inactive) | GI50 [18]: > 41.2 µM (inactive)

CCOP(=O)(OCC)/C(=C/NC(=S)c1ccncc1)C(=O)OC
GI50 [1]: > 100 µM (inactive) | GI50 [2]: > 100 µM (inactive) | GI50 [3]: > 100 µM (inactive) | GI50 [4]: > 100 µM (inactive) | GI50 [5]: > 100 µM (inactive) | GI50 [6]: > 100 µM (inactive) | GI50 [7]: > 100 µM (inactive) | GI50 [19]: > 100 µM (inactive) | GI50 [8]: > 100 µM (inactive) | GI50 [9]: > 100 µM (inactive) | GI50 [10]: > 100 µM (inactive) | GI50 [11]: > 100 µM (inactive) | GI50 [12]: > 100 µM (inactive) | GI50 [13]: > 100 µM (inactive) | GI50 [14]: > 100 µM (inactive) | GI50 [15]: > 100 µM (inactive) | GI50 [16]: > 100 µM (inactive) | GI50 [17]: > 100 µM (inactive) | GI50 [18]: > 100 µM (inactive)

CCCCCCCC(=O)NC(C)(C)C(=O)NCC(=O)NC(CC(C)C)C(=O)NC(C)(C)C(=O)NCC(=O)NCC(=O)NC(CC(C)C)C(=O)NC(C)(C)C(=O)NCC(=O)NC(C(=O)NC(CO)CC(C)C)C(C)CC (stereo not given)
GI50 [1]: 4.11 µM (inactive) | GI50 [2]: 4.36 µM (inactive) | GI50 [3]: 4.21 µM (inactive) | GI50 [4]: 3.63 µM (inactive) | GI50 [5]: 4.29 µM (inactive) | GI50 [6]: 3.11 µM (inactive) | GI50 [7]: 4.12 µM (inactive) | GI50 [19]: 3.53 µM (inactive) | GI50 [8]: 3.85 µM (inactive) | GI50 [9]: 3.57 µM (inactive) | GI50 [10]: 4.3 µM (inactive) | GI50 [11]: 3.94 µM (inactive) | GI50 [12]: 4.05 µM (inactive) | GI50 [13]: 1.41 µM (inactive) | GI50 [14]: 3.87 µM (inactive) | GI50 [15]: 4 µM (inactive) | GI50 [16]: 4 µM (inactive) | GI50 [17]: 3.93 µM (inactive) | GI50 [18]: 3.59 µM (inactive)

COc1ccc2c(c1)N=C1CSC(c3c(Cl)cccc3[N+](=O)[O-])N1C2 (stereo not given)
GI50 [1]: 63.4 µM (inactive) | GI50 [2]: 42.8 µM (inactive) | GI50 [3]: 51.6 µM (inactive) | GI50 [4]: 40.3 µM (inactive) | GI50 [5]: 21.4 µM (inactive) | GI50 [7]: 37.8 µM (inactive) | GI50 [19]: 35.5 µM (inactive) | GI50 [8]: 19.4 µM (inactive) | GI50 [9]: > 100 µM (inactive) | GI50 [10]: 30.8 µM (inactive) | GI50 [11]: 27.5 µM (inactive) | GI50 [12]: 38.2 µM (inactive) | GI50 [13]: 33.5 µM (inactive) | GI50 [14]: 31 µM (inactive) | GI50 [15]: 29.8 µM (inactive) | GI50 [16]: 33.3 µM (inactive) | GI50 [17]: 45.3 µM (inactive) | GI50 [18]: 24.7 µM (inactive)

CCc1n[nH]c(=O)n1N1C(=O)CCC1=O
GI50 [1]: > 100 µM (inactive) | GI50 [2]: > 100 µM (inactive) | GI50 [3]: > 100 µM (inactive) | GI50 [4]: > 100 µM (inactive) | GI50 [5]: > 100 µM (inactive) | GI50 [6]: > 100 µM (inactive) | GI50 [7]: > 100 µM (inactive) | GI50 [19]: > 100 µM (inactive) | GI50 [8]: > 100 µM (inactive) | GI50 [9]: > 100 µM (inactive) | GI50 [10]: > 100 µM (inactive) | GI50 [11]: > 100 µM (inactive) | GI50 [12]: > 100 µM (inactive) | GI50 [13]: > 100 µM (inactive) | GI50 [14]: > 100 µM (inactive) | GI50 [15]: > 100 µM (inactive) | GI50 [16]: > 100 µM (inactive) | GI50 [18]: > 100 µM (inactive)

CCOC(=O)C(=CN1CCNC1=S)C(=O)OCC
GI50 [2]: > 100 µM (inactive) | GI50 [3]: > 100 µM (inactive) | GI50 [4]: > 100 µM (inactive) | GI50 [5]: > 100 µM (inactive) | GI50 [6]: 0.288 µM (active) | GI50 [7]: > 100 µM (inactive) | GI50 [19]: > 100 µM (inactive) | GI50 [8]: > 100 µM (inactive) | GI50 [11]: > 100 µM (inactive) | GI50 [12]: > 100 µM (inactive) | GI50 [14]: 62.7 µM (inactive) | GI50 [15]: > 100 µM (inactive) | GI50 [16]: > 100 µM (inactive) | GI50 [17]: > 100 µM (inactive) | GI50 [18]: > 100 µM (inactive)

CC(=O)Oc1ccc(/C=C/C(=O)O[C@H]2CCCC[C@@H]2OC(=O)/C=C/c2ccc(OC(C)=O)c(OC(C)=O)c2)cc1OC(C)=O
GI50 [1]: 8.17 µM (inactive) | GI50 [2]: 6.87 µM (inactive) | GI50 [3]: 7.14 µM (inactive) | GI50 [4]: 17.1 µM (inactive) | GI50 [5]: 13.8 µM (inactive) | GI50 [6]: 4.74 µM (inactive) | GI50 [7]: 5.41 µM (inactive) | GI50 [19]: 2.49 µM (inactive) | GI50 [8]: 4.69 µM (inactive) | GI50 [9]: 4.71 µM (inactive) | GI50 [10]: 3.54 µM (inactive) | GI50 [11]: 10.4 µM (inactive) | GI50 [12]: 5.47 µM (inactive) | GI50 [13]: 8.75 µM (inactive) | GI50 [14]: 2.81 µM (inactive) | GI50 [15]: 8.97 µM (inactive) | GI50 [16]: 17 µM (inactive) | GI50 [17]: 8.75 µM (inactive) | GI50 [18]: 13.2 µM (inactive)
